Reference: ChEMBL document CHEMBL2021860, “Structure-activity relationships and key structural feature of pyridyloxybenzene-acylsulfonamides as new, potent, and selective peroxisome proliferator-activated receptor (PPAR) γ Agonists” (Bioorg Med Chem, 2012)

Columns and labels:
[1] = Clearance in human liver microsomes at 1 umol/L after 20 mins by HPLC analysis in presence of NADPH; type: ADME, Microsome; conditions: read-out: CLH
[2] = Clearance in rat liver microsomes at 1 umol/L after 20 mins by HPLC analysis in presence of NADPH; type: ADME, Microsome; conditions: read-out: CLH
[3] = biological target: T1, Peroxisome proliferator-activated receptor gamma (Homo sapiens, UniProt P37231); assay: Transactivation of human PPARgamma1 expressed in CHO-K1 cells co-expressing RXRalpha and PPRE after 1 day by luciferase reporter gene assay; type: cell-based
T1 sequence (P37231 whole entry): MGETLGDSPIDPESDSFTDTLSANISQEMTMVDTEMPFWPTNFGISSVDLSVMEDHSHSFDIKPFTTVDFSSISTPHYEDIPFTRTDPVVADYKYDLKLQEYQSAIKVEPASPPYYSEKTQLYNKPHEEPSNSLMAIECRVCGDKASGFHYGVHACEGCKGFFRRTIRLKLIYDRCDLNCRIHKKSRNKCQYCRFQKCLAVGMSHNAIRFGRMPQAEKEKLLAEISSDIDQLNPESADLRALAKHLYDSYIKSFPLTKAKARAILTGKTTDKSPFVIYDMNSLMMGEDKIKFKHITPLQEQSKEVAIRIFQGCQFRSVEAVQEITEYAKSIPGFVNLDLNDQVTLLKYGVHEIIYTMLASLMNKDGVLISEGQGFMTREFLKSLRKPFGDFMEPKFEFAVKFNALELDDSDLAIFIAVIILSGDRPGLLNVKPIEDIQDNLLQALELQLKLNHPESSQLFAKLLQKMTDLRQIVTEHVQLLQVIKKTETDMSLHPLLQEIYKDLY

[4] = Dissociation constant, pKa of the compound; type: physicochemical
[5] = Clearance in rat liver microsomes at 1 umol/L after 2 hrs by HPLC analysis in absence of NADPH; type: ADME, Microsome; conditions: read-out: CLH
[6] = Clearance in human liver microsomes at 1 umol/L after 2 hrs by HPLC analysis in absence of NADPH; type: ADME, Microsome; conditions: read-out: CLH
[7] = biological target: T1, Peroxisome proliferator-activated receptor gamma; assay: Displacement of [3H]-AD-5061 from human GST-tagged PPARgamma
Rattus norvegicus [8] = assay: Antidiabetic activity in po dosed Wistar fatty rat type 2 diabetes model assessed as reduction on plasma triglyceride level administered once daily for 7 days measured by autoanalyzer relative to control; type: functional; conditions: 168 h
Rattus norvegicus [9] = assay: Antidiabetic activity in po dosed Wistar fatty rat type 2 diabetes model assessed as reduction on plasma glucose level administered once daily for 7 days measured by autoanalyzer relative to control; type: functional; conditions: 168 h
[10] = AUC (0 to 24 hrs) in Wistar fatty rat at 0.18 mg/kg, po; type: ADME, organism-based; parameters: time < 24 hr, dose 0.18 mg/kg, route oral; conditions: plasma
[11] = Cmax in Wistar fatty rat at 0.18 mg/kg, po; type: ADME, organism-based; parameters: dose 0.18 mg/kg, route oral; conditions: in vivo
[12] = biological target: T2, Peroxisome proliferator-activated receptor alpha (Homo sapiens, UniProt Q07869); assay: Transactivation of human PPARalpha expressed in african green monkey COS1 cells after 1 day by luciferase reporter gene assay; type: cell-based, COS-1
T2 sequence (Q07869 whole entry): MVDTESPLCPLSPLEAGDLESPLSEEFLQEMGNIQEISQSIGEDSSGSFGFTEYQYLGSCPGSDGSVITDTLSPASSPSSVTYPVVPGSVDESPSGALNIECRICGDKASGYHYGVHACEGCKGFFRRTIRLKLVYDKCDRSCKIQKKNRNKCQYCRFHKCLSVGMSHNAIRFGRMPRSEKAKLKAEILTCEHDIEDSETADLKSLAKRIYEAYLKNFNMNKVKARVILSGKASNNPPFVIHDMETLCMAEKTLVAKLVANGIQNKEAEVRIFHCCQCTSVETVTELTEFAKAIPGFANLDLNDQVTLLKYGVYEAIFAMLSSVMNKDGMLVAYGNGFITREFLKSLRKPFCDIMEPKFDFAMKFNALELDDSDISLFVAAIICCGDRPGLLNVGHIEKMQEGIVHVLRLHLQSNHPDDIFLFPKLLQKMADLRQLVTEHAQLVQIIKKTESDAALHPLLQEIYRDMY

[13] = biological target: T3, Peroxisome proliferator-activated receptor delta (Homo sapiens, UniProt Q03181); assay: Transactivation of human PPARdelta expressed in african green monkey COS1 cells after 1 day by luciferase reporter gene assay; type: cell-based, COS-1
T3 sequence (Q03181 whole entry): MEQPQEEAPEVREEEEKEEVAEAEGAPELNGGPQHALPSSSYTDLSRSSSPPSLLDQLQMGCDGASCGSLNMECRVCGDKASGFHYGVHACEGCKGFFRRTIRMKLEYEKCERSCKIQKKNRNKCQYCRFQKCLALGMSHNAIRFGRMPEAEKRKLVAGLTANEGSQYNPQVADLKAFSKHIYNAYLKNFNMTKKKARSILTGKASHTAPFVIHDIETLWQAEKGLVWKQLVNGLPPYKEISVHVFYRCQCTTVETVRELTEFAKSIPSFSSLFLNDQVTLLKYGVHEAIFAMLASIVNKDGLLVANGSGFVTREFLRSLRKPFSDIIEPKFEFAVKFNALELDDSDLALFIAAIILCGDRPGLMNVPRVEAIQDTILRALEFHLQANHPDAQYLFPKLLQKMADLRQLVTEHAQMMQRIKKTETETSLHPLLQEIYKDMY

Structure (SMILES)	microsomal CLint at 1 µM [1] [µL/min/mg]	microsomal CLint at 1 µM [2] [µL/min/mg]	EC50 [3] [nM]	also measured
CCCCCS(=O)(=O)NC(=O)/C(C)=C/c1ccc(OCCOC)cc1Oc1ncc(C(F)(F)F)cc1Cl	20	20		
CCCCCNS(=O)(=O)NC(=O)CCc1ccc(OCCOC)cc1Oc1ncc(C(F)(F)F)cc1Cl	70	111		
CCCCCS(=O)(=O)NC(=O)/C=C/c1ccc(OCCCS(C)(=O)=O)cc1Oc1ncc(C(F)(F)F)cc1Cl	6	< 1	320	
CCCCCNC(=O)CCc1ccc(OC(C)C)cc1Oc1ncc(C(F)(F)F)cc1Cl			290	
CCCCCS(=O)(=O)NCCCc1ccc(OCCOC)cc1Oc1ncc(C(F)(F)F)cc1Cl	210	204	32	
CCCCOC(=O)NCCCc1ccc(OCCOC)cc1Oc1ncc(C(F)(F)F)cc1Cl			38	
CCCCNC(=O)OCCCc1ccc(OCCOC)cc1Oc1ncc(C(F)(F)F)cc1Cl			48	
CCCCCS(=O)(=O)NC(=O)OCCCc1ccc(OCCOC)cc1Oc1ncc(C(F)(F)F)cc1Cl	90	35		pKa [4]: 4.6
CCCCCS(=O)(=O)NC(=O)CCc1ccccc1Oc1ncc(C(F)(F)F)cc1Cl	78	120	61	
CCCCCS(=O)(=O)NC(=O)CCc1ccc(OC(C)C)cc1Oc1ncc(C(F)(F)F)cc1Cl	57	94		
CCCCCS(=O)(=O)NC(=O)CCc1ccc(OCCOC)cc1Oc1ncc(C(F)(F)F)cc1Cl	77	62		metabolised at 2 h, 1 µM [5]: 13.6%; metabolised at 2 h, 1 µM [6]: 50.1%; pKa [4]: 4.6
CCCCCS(=O)(=O)NC(=O)CCc1ccc(OCC(=O)N(CC)CC)cc1Oc1ncc(C(F)(F)F)cc1Cl	95	92		
CCCCCS(=O)(=O)NC(=O)CCc1ccc(OCCN2CCCC2=O)cc1Oc1ncc(C(F)(F)F)cc1Cl	78	104		
COCCCS(=O)(=O)NC(=O)CCc1ccc(OCCOC)cc1Oc1ncc(C(F)(F)F)cc1Cl	7	11	11	
COCCOc1ccc(CCC(=O)NS(=O)(=O)c2ccccc2)c(Oc2ncc(C(F)(F)F)cc2Cl)c1			32	
COCCOc1ccc(CCC(=O)NS(=O)(=O)c2ccc(Cl)cc2)c(Oc2ncc(C(F)(F)F)cc2Cl)c1	67	71	8.6	
CCCCCS(=O)(=O)NC(=O)C(C)Cc1ccc(OCCOC)cc1Oc1ncc(C(F)(F)F)cc1Cl (stereo not drawn)	128	189		
CCCCCS(=O)(=O)NC(=O)C(C)(C)Cc1ccc(OCCOC)cc1Oc1ncc(C(F)(F)F)cc1Cl	113	78		
CCCCCS(=O)(=O)NC(=O)C1CC1c1ccc(OCCOC)cc1Oc1ncc(C(F)(F)F)cc1Cl (stereo not drawn)	40		5.5	metabolised at 2 h, 1 µM [5]: 81.7%; metabolised at 2 h, 1 µM [6]: 73.8%; hepatic extraction ratio at 20 min, 1 µM [2]: 0.26
CCCCCS(=O)(=O)NC(=O)C(Cc1ccc(OCCOC)cc1Oc1ncc(C(F)(F)F)cc1Cl)OC (stereo not drawn)	72	15		
CCCCCS(=O)(=O)NC(=O)OCc1ccc(OCCOC)cc1Oc1ncc(C(F)(F)F)cc1Cl	23	31		
CCCCCS(=O)(=O)NC(=O)/C=C/c1ccc(OC(C)C)cc1Oc1ncc(C(F)(F)F)cc1Cl	19	19		

Continued, in another order:

microsomal CLint at 1 µM [1] [µL/min/mg]	microsomal CLint at 1 µM [2] [µL/min/mg]	EC50 [3] [nM]	Structure (SMILES)	also measured
16	15		CCCCCS(=O)(=O)NC(=O)/C=C/c1ccc(OCCCOC)cc1Oc1ncc(C(F)(F)F)cc1Cl	
< 1	< 1		CCCCCS(=O)(=O)NC(=O)/C=C/c1ccc(OCCO)cc1Oc1ncc(C(F)(F)F)cc1Cl	
30	19	59	CCCCCS(=O)(=O)NC(=O)/C=C/c1ccc(OCCC(C)=O)cc1Oc1ncc(C(F)(F)F)cc1Cl	
23	19		CCCCCS(=O)(=O)NC(=O)/C=C/c1ccc(OCCCC#N)cc1Oc1ncc(C(F)(F)F)cc1Cl	
9	6		CCCCCS(=O)(=O)NC(=O)/C=C/c1ccc(OCCOC)cc1Oc1ncc(C(F)(F)F)cc1Cl	IC50 [7]: 330 nM; ED25 (Rattus norvegicus [8]): 0.2 mg/kg; ED25 (Rattus norvegicus [9]): 0.17 mg/kg; AUC(0-t) at 24 h [10]: 15300 ng·h/mL; Cmax [11]: 946 ng/mL; metabolised at 2 h, 1 µM [5]: 87.3%; metabolised at 2 h, 1 µM [6]: 94.8%; EC50 [12]: > 10000 nM; EC50 [13]: > 10000 nM
14	10	94	CCCCCS(=O)(=O)NC(=O)/C=C/c1ccc(OCCOC)cc1Oc1ccc(C(F)(F)F)cc1Cl	
< 1	< 1	> 10000	CCCCCS(=O)(=O)NC(=O)/C=C/c1ccc(OCCOC)cc1Oc1ccc(C(F)(F)F)cn1	
18	15	> 10000	CCCCCS(=O)(=O)NC(=O)/C=C/c1ccc(OCCOC)cc1Oc1ncccc1Cl	
9	9	190	CCCCCS(=O)(=O)NC(=O)/C=C/c1ccc(OCCOC)cc1Oc1ncc(Cl)cc1Cl	
		> 10000	CCCCCS(=O)(=O)NC(=O)/C=C/c1ccc(OCCOC)cc1Oc1ncc(NC(C)=O)cc1C	
25	17		CCCCCS(=O)(=O)NC(=O)/C=C/c1ccc(OCCOC2CC2)cc1Oc1ncc(C(F)(F)F)cc1Cl	
		> 10000	CCCCCS(=O)(=O)NC(=O)/C=C/c1ccc(OCCOC)cc1Oc1ncc(N)cc1C	
